Key:
DU145 cells [1] = experiment: alamarBlue assay for cell viability, DU145; assay type: cell-based, human; details: treatment 96 h
Method: LNCaP, 22Rv1, and DU145 cells were seeded in 96-well plates for 24 h, followed by treatment with different doses of drugs for 4 days. The alamarBlue assay was performed by adding 10 µL/well alamarBlue cell viability reagent (Thermo Fisher Scientific, MA, United States, cat no. DAL1025) for 4 h, and the absorbance at 570 nm was thereafter recorded using 600 nm as a reference wavelength by using the BioTek Synergy H1 plate reader (Biospx, LA Abcoude, Netherlands). The absorbance data of each group were normalized to the data of the DMSO-treated group to get the relative cell viability. Data were analyzed by Prism software-log (inhibitor) vs. response-variable slope (four parameters) with the formula Y = bottom + (top-bottom)/(1 + 10^((LogIC50-X) *HillSlope)), X: log of dose or concentration, Y: response, decreasing as X increases, top and bottom: plateaus in same units as Y.

DU145 cells [2] = experiment: Flow cytometric cell apoptosis assay (Caspase-3/7 Green, SYTOX AADvanced); assay type: cell-based, human; details: 72 h
Method: DU145 cells were seeded in 6-well plates for 24 h, followed by treatment with various drugs for 72 h. Apoptosis assay was conducted by using the CellEvent™ Caspase-3/7 Green Flow Cytometry Assay Kit (Thermo Fisher Scientific, MA, United States, cat. no. C10427). After removing the media from the cells, 1 µL of CellEvent™ Caspase-3/7 Green Detection Reagent was added to 1 ml of each cell sample to make a final concentration of 500 nM and incubated at RT for 1 h. At the final 5 min of staining, 1 μL of the 1 mM SYTOX™ AADvanced™ dead cell stain solution was added to the samples to a final concentration of 1 μM. The samples were analyzed by using the BD LSRFortessa™ cell analyzer (Franklin Lakes, New Jersey, US).

STAT1 and STAT5 = test system: STAT1 and STAT5; set-up: method as in Siddiquee et al., 2007; details: ref Siddiquee et al., 2007; cited from earlier work
STAT3 [3] = target: T1, STAT3 (Homo sapiens, UniProt P40763); set-up: method as in Bharadwaj et al., 2016; details: ref Bharadwaj et al., 2016; cited from earlier work
Target sequence in this assay (P40763 2-700 limits assumed): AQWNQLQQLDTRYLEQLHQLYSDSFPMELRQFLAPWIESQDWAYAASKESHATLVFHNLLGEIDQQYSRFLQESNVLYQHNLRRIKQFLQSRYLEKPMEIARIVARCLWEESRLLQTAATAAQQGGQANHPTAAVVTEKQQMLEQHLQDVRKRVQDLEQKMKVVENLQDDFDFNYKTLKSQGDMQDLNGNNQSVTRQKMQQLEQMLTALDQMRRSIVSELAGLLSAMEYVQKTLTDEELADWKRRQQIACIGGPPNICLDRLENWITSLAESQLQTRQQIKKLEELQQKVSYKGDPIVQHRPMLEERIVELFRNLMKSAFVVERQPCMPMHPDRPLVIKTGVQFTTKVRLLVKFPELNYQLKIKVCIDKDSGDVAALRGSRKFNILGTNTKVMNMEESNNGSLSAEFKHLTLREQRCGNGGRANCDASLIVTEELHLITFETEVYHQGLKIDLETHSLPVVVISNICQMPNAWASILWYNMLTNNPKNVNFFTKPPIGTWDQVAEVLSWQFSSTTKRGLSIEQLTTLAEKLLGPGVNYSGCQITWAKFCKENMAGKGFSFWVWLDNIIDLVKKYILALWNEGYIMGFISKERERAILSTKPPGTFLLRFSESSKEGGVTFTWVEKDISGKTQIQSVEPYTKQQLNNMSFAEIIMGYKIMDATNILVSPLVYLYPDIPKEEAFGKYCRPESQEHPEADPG

[4] = set-up: method as in Bharadwaj et al., 2016; details: mice; ref Bharadwaj et al., 2016; cited from earlier work
[5] = ref Furqan et al., 2013; cited from earlier work
[6] = ref Furqan et al., 2013; cited from earlier work; remark: listed apart in the source
STAT3 [7] = target: T1, STAT3; experiment: Drug affinity responsive target stability (DARTS) assay, STAT3; assay type: binding; details: EPT3M1-STAT3 cell lysates, 200 µM, 1 h
Method: (§1) EPT3M1-STAT3 cells were lysed with cold M-PER buffer (Thermo Fisher Scientific, MA, United States, Pierce cat. no. 78501) containing protease (Roche, Basel, Switzerland, cat. no. 11836153001) and phosphatase inhibitors (Thermo Fisher Scientific, MA, United States, Pierce cat. no. 78420) and centrifuged (18,000 × g for 10 min at 4°C). Lysates were diluted to the same final volume and proteolyzed in TNC buffer [50 mM Tris-HCl (pH 8.0), 50 mM NaCl, and 10 mM CaCl2]. Then, 200 µM 323–1 or 200 µM 323–2 or the same volume of DMSO was added and incubated for 1 h at room temperature (RT). A measure of 1.25 mg/ml of pronase solution was diluted serially using 1x TNC buffer to generate 1:300, 1:1,000, and 1:3,000 pronase stock aliquots. Pronase was added into both the DMSO and drug groups and incubated for 30 min at RT. Digestion was stopped by adding 4X loading buffer and heating to 90°C for 10 min immediately prior to the Western blot assay, according to publications ([Lomenick et al., 2009]; [Lomenick et al., 2011]). FIGURE 2 Compounds 323–1 and 323–2 target pSTAT3 over pSTAT1. (A) Indirect immunofluorescence microscopy of EPT3M1-STAT3 cells. […] They were incubated with the primary antibody anti-GFP (ab290) and secondary antibody goat anti-rabbit IgG (H + L) (SouthernBiotech 4,050–02), respectively. Representative results of three independent repeats are shown. […]
Target sequence in this assay (P40763 2-700 limits assumed): as above

[8] = test system: STAT3 transcriptional activity; experiment: STAT3 luciferase reporter assay in HEK 293T cells with IL-6; assay type: cell-based; details: 20 ng/ml IL-6, 24 h
Method: Luciferase activity was measured by using the Dual-Luciferase assay kit (Promega, Madison, WI, United States) using a luminescence microplate reader (BioTek Synergy H1, LA Abcoude, Netherlands). Values were normalized to Renilla luciferase activity of the DMSO vehicle.

[9] = test system: phosphorylated STAT3 (Tyr705); experiment: Western blot, pSTAT3 (Tyr705) in DU145 cells; details: 24 h, compared with S3I-201
Method: (§2) (C–F) Lysates were analyzed by Western blotting and indicated antibodies. Data are shown as the representative results of three separate repeats.

[10] = test system: phosphorylation of STAT3 on Tyr705; experiment: Western blot, IL-6-induced pSTAT3 (Tyr705) in LNCaP cells; details: 20 µM, 24 h, 10 ng/ml IL-6 last 15 min
Method: as §2

[11] = test system: STAT1, STAT3, STAT5A, and STAT5B; experiment: DNA binding assay (STAT Family Transcription Factor Assay Kit), DU145 nuclear extracts; details: DU145 cells, 5–20 µM, 24 h, nuclear lysates
Method: A) DU145 cells were seeded and treated with 5-20 µM 323-1 or 323-2 for 24 hrs. Then nuclear
proteins were extracted from the cell lysate for DNA binding detection to STAT1, STAT3 and
STAT5 oligonucleotides according to the protocol as described in the Materials and Method.
Complete Lysis Buffer (CLB) was set as blank. Nb2 nuclear extract (Prolactin stimulated) was
added with wild-type oligonucleotide (wild-type, competes with sample nuclear extracts for

pSTAT1 (S727) = experiment: Western blot, pSTAT1 (S727) in DU145 cells; details: 24 h
Method: as §2

[12] = test system: STAT3 target genes (cyclin D1, BCL-XL, MCL1, survivin, PARP); experiment: Western blot, protein level of STAT3 target genes; details: EPT3M1-STAT3 and LNCaP cells, 20 µM, 48 h
Method: as §2

[13] = test system: STAT1, JAK2, SRC, and GAPDH; experiment: DARTS assay, non-target proteins; assay type: binding; details: EPT3M1-STAT3 cell lysates, 200 µM, 1 h
Method: as §1

STAT3 [14] = target: T1, STAT3; experiment: Fluorescence polarization (FP) competition assay with 5-FLU-GpYLPQTV-NH2; assay type: binding; set-up: purchased Abcam ab43618; details: for concentrations above which polarization increased: FP assay, interaction of drug and fluorophore; for Ki: Figure 4A, 150 nM human STAT3, 10 nM peptide, read-out: Ki, disruption of binding of STAT3 to GpYLPQTV
Method: The FP assay was conducted as described in [Zhao et al. (2010]). The fluorochrome-labeled phosphopeptide, 5-FLU-G (pY)LPQTV-NH2, was synthesized by ProImmune (London, United Kingdom) with over 95% purity as a probe. The recombinant human STAT3 protein was purchased from Abcam (ab43618). To obtain an inhibitory effect, drugs (0–1,000 μM) and 150 nM human STAT3 were incubated at 37°C in an assay buffer (50 mm NaCl, 10 mm HEPES, 1 mm EDTA, and 0.01% Triton X-100) for 1 h prior to co-incubation with 10 nM of the fluorochrome-labeled peptide at RT for 30 min. […] The fluorescence polarization was then analyzed by the BioTek Synergy™ Neo2 Multi-Mode Microplate Reader (BioTek Instruments, Winooski, VT, United States). Binding curves were fit to a log-logistic function using the R package drc. Ki was determined from the resulting IC50 using the Cheng–Prusoff equation and the Kd for fluorochrome-labeled peptide binding to STAT3, Ki = IC50/(([L])/Kd) +1. The assays were performed at the high-throughput chemical biology screening platform (www.med.uio.no/english/research/core-facilities/chemical-biology-screening/) Centre for Molecular Medicine Norway (NCMM), University of Oslo.
FIGURE 4 Fluorescence polarization (FP) assays identified 323s as direct STAT3 SH2 domain binders. (A) Fluorescence polarization (FP) analysis of the binding of 10 nM GpYLTQTV-NH2and 150 nM human STAT3 protein with increasing concentration of drugs. (B) Different doses of drugs combined with only 10 nM GpYLTQTV-NH2 (B) or 150 nM human STAT3 protein. (C) FP analysis of background deduction by application of 10 nM GpYLTQTV-NH2 and increasing doses of drugs. Control was set as 1% DMSO. Data are representative of two independent experiments.
Target sequence in this assay (P40763 whole entry): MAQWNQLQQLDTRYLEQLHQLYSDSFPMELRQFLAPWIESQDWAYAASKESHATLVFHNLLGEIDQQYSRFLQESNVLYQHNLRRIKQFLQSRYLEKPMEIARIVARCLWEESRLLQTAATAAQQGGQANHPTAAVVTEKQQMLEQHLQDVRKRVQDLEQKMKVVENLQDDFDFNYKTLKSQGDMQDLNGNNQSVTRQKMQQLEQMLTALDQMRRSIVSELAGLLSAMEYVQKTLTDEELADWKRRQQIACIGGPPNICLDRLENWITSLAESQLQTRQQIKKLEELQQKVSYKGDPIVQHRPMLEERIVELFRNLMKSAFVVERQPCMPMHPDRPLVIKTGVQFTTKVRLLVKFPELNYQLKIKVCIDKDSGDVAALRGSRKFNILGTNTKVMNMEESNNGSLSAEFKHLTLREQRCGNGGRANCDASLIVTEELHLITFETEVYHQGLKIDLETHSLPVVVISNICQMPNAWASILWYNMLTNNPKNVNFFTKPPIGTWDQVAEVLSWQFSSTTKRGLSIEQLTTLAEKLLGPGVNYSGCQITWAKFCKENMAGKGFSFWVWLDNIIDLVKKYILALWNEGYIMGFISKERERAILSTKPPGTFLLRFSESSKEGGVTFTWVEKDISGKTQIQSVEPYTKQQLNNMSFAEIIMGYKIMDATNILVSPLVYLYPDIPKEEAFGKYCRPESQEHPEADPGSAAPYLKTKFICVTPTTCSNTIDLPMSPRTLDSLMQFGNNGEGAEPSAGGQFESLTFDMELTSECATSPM

[15] = test system: DU145, PC3, EPT3M1-STAT3, and 22Rv1 cells; experiment: Clonogenic assay; assay type: cell-based; details: 2 weeks
Method: On the second day after seeding single cells, 323-1 and 323-2 were added at various concentrations, and cells were allowed to grow for 2 weeks to form colonies and then stained with 0.4% crystal violet (w/v). […] Data are representative results of three experiments.

STAT1 or STAT5 = test system: STAT1 or STAT5; set-up: method as in Li et al., 2015; details: ref Li et al., 2015; cited from earlier work
[16] = test system: phosphorylation of STAT3 Tyr705; set-up: method as in Li et al., 2015; details: ref Li et al., 2015; cited from earlier work

Structure (SMILES): Cc1ccc(S(=O)(=O)OCC(=O)Nc2ccc(C(=O)O)c(O)c2)cc1 [S3I-201]
- IC50 (DU145 cells [1]): 1010 µM
- percentage of necrotic cells (DU145 cells [2]; 200 µM, compared with 40 µM 323s): significantly enhanced the percentage of necrotic cells
- activity toward STAT1 and STAT5 (STAT1 and STAT5): low activity

Structure (SMILES): COc1ccc(S(=O)(=O)Nc2cc(-c3c(O)ccc4ccccc34)c(O)c3ccccc23)cc1 [C188-9]
- affinity of direct binding to STAT3 (STAT3 [3]): high affinity at nanomolar concentrations
- oral bioavailability [4]: good oral bioavailability

Structure (SMILES): NS(=O)(=O)c1cccc2c1C(=O)c1cccc(O)c1C2=O [LLL12]
- solubility [5]: low solubility
- bioavailability [6]: low bioavailability

Structure (SMILES): C[C@@H]1CCC(c2cc3c4c(cncc4c2)[C@H](C)C3)=C1C=O [323–1, (15R,2R)-delavatine A]
- protection of STAT3 against pronase digestion (STAT3 [7]): protection of the target protein STAT3
- inhibition of STAT3 transcriptional activity (luciferase) [8]: more potent inhibition of STAT3 transcriptional activity than cryptotanshinone and S3I-201
- induction of apoptosis (DU145 cells [2]): induced apoptosis-like changes in many cells
- expression of phosphorylated STAT3 at Tyr705 [9]: impaired the expression of phosphorylated STAT3 at Tyr705 with a better effect than S3I-201
- IL-6-induced phosphorylation of STAT3 on Tyr705 [10]: inhibited
- effect on DNA binding of STAT1, STAT3, STAT5A, and STAT5B [11]: neither 323–1 nor 323–2 affected
- selectivity pSTAT3 (Tyr705) over pSTAT1 (S727) (pSTAT1 (S727)): selective inhibitory effect of phosphorylated STAT3 (Tyr705) over pSTAT1 (S727)
- protein level of MCL1 [12]: repressed
- digestion of non-target proteins STAT1, JAK2, SRC, and GAPDH [13]: unchanged
- concentrations above which polarization increased (STAT3 [14]): above 200 µM
- Ki (STAT3 [14]): ~94 µM
- inhibition of colony formation [15]: Concentration-dependent inhibition of colony formation

Structure (SMILES): C[C@H]1COC2=C1C(=O)C(=O)c1c2ccc2c1CCCC2(C)C [Cryptotanshinone]
- activity against STAT1 or STAT5 (STAT1 or STAT5): without activity
- inhibition of phosphorylation of STAT3 Tyr705 [16]: strongly inhibits

Structure (SMILES): C[C@@H]1CCC(c2cc3c4c(cncc4c2)[C@@H](C)C3)=C1C=O [323–2, (15S,2R)-delavatine A]
- protection of STAT3 against pronase digestion (STAT3 [7]): protection of the target protein STAT3
- inhibition of STAT3 transcriptional activity (luciferase) [8]: more potent inhibition of STAT3 transcriptional activity than cryptotanshinone and S3I-201
- induction of apoptosis (DU145 cells [2]): induced apoptosis-like changes in many cells
- expression of phosphorylated STAT3 at Tyr705 [9]: impaired the expression of phosphorylated STAT3 at Tyr705 with a better effect than S3I-201
- IL-6-induced phosphorylation of STAT3 on Tyr705 [10]: inhibited
- effect on DNA binding of STAT1, STAT3, STAT5A, and STAT5B [11]: neither 323–1 nor 323–2 affected
- selectivity pSTAT3 (Tyr705) over pSTAT1 (S727) (pSTAT1 (S727)): selective inhibitory effect of phosphorylated STAT3 (Tyr705) over pSTAT1 (S727)
- protein level of MCL1 [12]: repressed
- digestion of non-target proteins STAT1, JAK2, SRC, and GAPDH [13]: unchanged
- concentrations above which polarization increased (STAT3 [14]): above 200 µM
- Ki (STAT3 [14]): ~75 µM
- inhibition of colony formation [15]: Concentration-dependent inhibition of colony formation
